Experimental data published in ChEMBL document CHEMBL4828709, “Discovery of 2,4-pyrimidinediamine derivatives as potent dual inhibitors of ALK and HDAC” (Eur J Med Chem, 2021).
The source made the active and inactive calls. The rule behind the calls is not given here.

Key:
[1] = MRT (0 to infinity) in Sprague-Dawley rat at 1 mg/kg, iv measured for 12 hrs by LC-MS/MS analysis; format: ADME, organism-based; details: in vivo
[2] = system: SH-SY5Y; experiment: Potency index, ratio of crizotinib IC50 to test compound IC50 for human SH-SY5Y cells harboring ALK F1174L mutant assessed as inhibition of cell proliferation measured after 72 hrs by CCK8 assay; format: functional
[3] = biological target: T1, ALK tyrosine kinase receptor (Homo sapiens, UniProt Q9UM73); experiment: Inhibition of human ALK in human SH-SY5Y cells assessed as inhibition of ERK phosphorylation at Thr202/Tyr204 residue measured after 24 hrs by Western blot assay; format: cell-based; details: dose 1-4 µM
[4] = system: MDA-MB-231; experiment: Potency index, ratio of crizotinib IC50 to test compound IC50 for human MDA-MB-231 cells assessed as inhibition of cell proliferation measured after 72 hrs by CCK8 assay; format: functional
[5] = system: MDA-MB-231; experiment: Induction of apoptosis in human MDA-MB-231 cells assessed as orange-red fluorescence intensity at 1 to 4 uM measured after 24 hrs by AO/EB staining based fluorescence microscopy; format: functional, cell-based; details: dose 1-4 µM
[6] = biological target: T1, ALK tyrosine kinase receptor; experiment: Inhibition of human ALK in human SH-SY5Y cells assessed as inhibition of ERK phosphorylation at Thr202/Tyr204 residue at 4 uM measured after 24 hrs by Western blot assay; format: cell-based
[7] = Potency index, ratio of ceritinib IC50 to test compound IC50 for human SKNBE2 cells harboring wild type ALK assessed as inhibition of cell proliferation measured after 72 hrs by CCK8 assay; format: functional
[8] = system: MDA-MB-231; experiment: Cell cycle arrest in human MDA-MB-231 cells assessed as accumulation of cells at S phase at 2 uM measured after 24 hrs by PI staining based flowcytometry method (reference value: 20.81%); format: functional
[9] = system: SH-SY5Y; experiment: Potency index, ratio of ceritinib IC50 to test compound IC50 for human SH-SY5Y cells harboring ALK F1174L mutant assessed as inhibition of cell proliferation measured after 72 hrs by CCK8 assay; format: functional
[10] = biological target: Histone deacetylase (Homo sapiens) (UniProt Q13547+O15379+Q9UBN7+Q92769+Q9UQL6+Q8WUI4+Q9BY41+Q96DB2+P56524+Q9UKV0+Q969S8); experiment: Inhibition of HDAC in human MDA-MB-231 cells assessed as increase of intracellular acetylated histone H3 level at 1 to 4 uM measured after 24 hrs by Western blot assay; format: cell-based; details: dose 1-4 µM
[11] = biological target: T1, ALK tyrosine kinase receptor; experiment: Inhibition of ALK in human MDA-MB-231 cells assessed as inhibition of ERK phosphorylation at Thr202/Tyr204 residue measured after 24 hrs by Western blot assay; format: cell-based; details: dose 1-4 µM
[12] = system: SH-SY5Y; experiment: Induction of apoptosis in human SH-SY5Y cells assessed as late apoptotic cells at 2 uM measured after 24 hrs by Annexin V-FITC/PI staining based flowcytometry (reference value: 14.32%); format: functional
[13] = system: MDA-MB-231; experiment: Induction of apoptosis in human MDA-MB-231 cells assessed as viable cells at 1 uM measured after 24 hrs by Annexin V-FITC/PI staining based flowcytometry (reference value: 93.14%); format: functional; details: read-out: Activity
[14] = biological target: T1, ALK tyrosine kinase receptor; experiment: Inhibition of ALK (unknown origin) at 100 nM preincubated for 10 mins followed by addition of substrate and ATP for 25 mins by caliper EZ reader method; details: time 35.0 min
[15] = system: MDA-MB-231; experiment: Induction of apoptosis in human MDA-MB-231 cells assessed as necrotic cells at 2 uM measured after 24 hrs by Annexin V-FITC/PI staining based flowcytometry (reference value: 0.94%); format: functional
[16] = biological target: T1, ALK tyrosine kinase receptor; experiment: Inhibition of ALK in human MDA-MB-231 cells assessed as inhibition of AKT phosphorylation at Ser473 residue at 4 uM measured after 24 hrs by Western blot assay; format: cell-based
[17] = biological target: T1, ALK tyrosine kinase receptor; experiment: Inhibition of human ALK at 1 uM
[18] = species: Homo sapiens; experiment: Inhibition of human FLT at 1 uM
[19] = biological target: T1, ALK tyrosine kinase receptor; experiment: Inhibition of ALK in human MDA-MB-231 cells assessed as inhibition of ALK phosphorylation at Tyr1278 residue at 4 uM measured after 24 hrs by Western blot assay; format: cell-based
[20] = system: MDA-MB-231; experiment: Cell cycle arrest in human MDA-MB-231 cells assessed as accumulation of cells at S phase at 1 uM measured after 24 hrs by PI staining based flowcytometry method (reference value: 20.81%); format: functional
[21] = system: MDA-MB-231; experiment: Cell cycle arrest in human MDA-MB-231 cells assessed as accumulation of cells at G2 phase at 2 uM measured after 24 hrs by PI staining based flowcytometry method (reference value: 23.89%); format: functional
[22] = system: MDA-MB-231; experiment: Induction of apoptosis in human MDA-MB-231 cells assessed as early apoptotic cells at 1 uM measured after 24 hrs by Annexin V-FITC/PI staining based flowcytometry ( Rvb = […]%); format: functional
[23] = system: SH-SY5Y; experiment: Induction of apoptosis in human SH-SY5Y cells assessed as necrotic cells at 1 uM measured after 24 hrs by Annexin V-FITC/PI staining based flowcytometry (reference value: 7.81%); format: functional
[24] = system: SH-SY5Y; experiment: Induction of apoptosis in human SH-SY5Y cells assessed as viable cells at 1 uM measured after 24 hrs by Annexin V-FITC/PI staining based flowcytometry (reference value: 77.05%); format: functional; details: read-out: Activity
[25] = system: MDA-MB-231; experiment: Antimigratory activity against human MDA-MB-231 cells assessed as wound closure at 0.4 uM measured after 48 hrs by cell scratch assay (reference value: 30.3%); format: functional
[26] = AUC (0 to infinity) in Sprague-Dawley rat at 1 mg/kg, iv measured for 12 hrs by LC-MS/MS analysis; format: ADME, organism-based; set-up: route intravenous, dose 1 mg/kg, time 12 hrs; details: in vivo
[27] = system: A549; experiment: cells; format: functional, cell-based; details: Homo sapiens, A549, 72 h
Description: Antiproliferative activity against human A549 cells assessed as inhibition of cell proliferation measured after 72 hrs by CCK8 assay

[28] = biological target: Fibroblast growth factor receptor (Homo sapiens) (UniProt P22607+P11362+P22455+P21802); experiment: Inhibition of human FGFR at 1 uM; format: protein assay
[29] = system: SH-SY5Y; experiment: Induction of apoptosis in human SH-SY5Y cells assessed as early apoptotic cells at 1 uM measured after 24 hrs by Annexin V-FITC/PI staining based flowcytometry (reference value: 0.82%); format: functional
[30] = system: MDA-MB-231; experiment: Cell cycle arrest in human MDA-MB-231 cells assessed as accumulation of cells at G2 phase at 1 uM measured after 24 hrs by PI staining based flowcytometry method (reference value: 23.89%); format: functional
[31] = system: SH-SY5Y; experiment: Induction of apoptosis in human SH-SY5Y cells assessed as early apoptotic cells at 4 uM measured after 24 hrs by Annexin V-FITC/PI staining based flowcytometry (reference value: 0.82%); format: functional
[32] = system: SH-SY5Y; experiment: Cell cycle arrest in human SH-SY5Y cells assessed as accumulation of cells at G1 phase at 2 uM measured after 24 hrs by PI staining based flowcytometry method (reference value: 59.8%); format: functional
[33] = system: SH-SY5Y; experiment: cells; format: functional, cell-based; details: Homo sapiens, 72 h
Description: Antiproliferative activity against human SH-SY5Y cells harboring ALK F1174L mutant assessed as inhibition of cell proliferation measured after 72 hrs by CCK8 assay

[34] = system: SH-SY5Y; experiment: Cell cycle arrest in human SH-SY5Y cells assessed as accumulation of cells at S phase at 1 uM measured after 24 hrs by PI staining based flowcytometry method (reference value: 27.69%); format: functional

T1 sequence (Q9UM73 19-1620 limits assumed): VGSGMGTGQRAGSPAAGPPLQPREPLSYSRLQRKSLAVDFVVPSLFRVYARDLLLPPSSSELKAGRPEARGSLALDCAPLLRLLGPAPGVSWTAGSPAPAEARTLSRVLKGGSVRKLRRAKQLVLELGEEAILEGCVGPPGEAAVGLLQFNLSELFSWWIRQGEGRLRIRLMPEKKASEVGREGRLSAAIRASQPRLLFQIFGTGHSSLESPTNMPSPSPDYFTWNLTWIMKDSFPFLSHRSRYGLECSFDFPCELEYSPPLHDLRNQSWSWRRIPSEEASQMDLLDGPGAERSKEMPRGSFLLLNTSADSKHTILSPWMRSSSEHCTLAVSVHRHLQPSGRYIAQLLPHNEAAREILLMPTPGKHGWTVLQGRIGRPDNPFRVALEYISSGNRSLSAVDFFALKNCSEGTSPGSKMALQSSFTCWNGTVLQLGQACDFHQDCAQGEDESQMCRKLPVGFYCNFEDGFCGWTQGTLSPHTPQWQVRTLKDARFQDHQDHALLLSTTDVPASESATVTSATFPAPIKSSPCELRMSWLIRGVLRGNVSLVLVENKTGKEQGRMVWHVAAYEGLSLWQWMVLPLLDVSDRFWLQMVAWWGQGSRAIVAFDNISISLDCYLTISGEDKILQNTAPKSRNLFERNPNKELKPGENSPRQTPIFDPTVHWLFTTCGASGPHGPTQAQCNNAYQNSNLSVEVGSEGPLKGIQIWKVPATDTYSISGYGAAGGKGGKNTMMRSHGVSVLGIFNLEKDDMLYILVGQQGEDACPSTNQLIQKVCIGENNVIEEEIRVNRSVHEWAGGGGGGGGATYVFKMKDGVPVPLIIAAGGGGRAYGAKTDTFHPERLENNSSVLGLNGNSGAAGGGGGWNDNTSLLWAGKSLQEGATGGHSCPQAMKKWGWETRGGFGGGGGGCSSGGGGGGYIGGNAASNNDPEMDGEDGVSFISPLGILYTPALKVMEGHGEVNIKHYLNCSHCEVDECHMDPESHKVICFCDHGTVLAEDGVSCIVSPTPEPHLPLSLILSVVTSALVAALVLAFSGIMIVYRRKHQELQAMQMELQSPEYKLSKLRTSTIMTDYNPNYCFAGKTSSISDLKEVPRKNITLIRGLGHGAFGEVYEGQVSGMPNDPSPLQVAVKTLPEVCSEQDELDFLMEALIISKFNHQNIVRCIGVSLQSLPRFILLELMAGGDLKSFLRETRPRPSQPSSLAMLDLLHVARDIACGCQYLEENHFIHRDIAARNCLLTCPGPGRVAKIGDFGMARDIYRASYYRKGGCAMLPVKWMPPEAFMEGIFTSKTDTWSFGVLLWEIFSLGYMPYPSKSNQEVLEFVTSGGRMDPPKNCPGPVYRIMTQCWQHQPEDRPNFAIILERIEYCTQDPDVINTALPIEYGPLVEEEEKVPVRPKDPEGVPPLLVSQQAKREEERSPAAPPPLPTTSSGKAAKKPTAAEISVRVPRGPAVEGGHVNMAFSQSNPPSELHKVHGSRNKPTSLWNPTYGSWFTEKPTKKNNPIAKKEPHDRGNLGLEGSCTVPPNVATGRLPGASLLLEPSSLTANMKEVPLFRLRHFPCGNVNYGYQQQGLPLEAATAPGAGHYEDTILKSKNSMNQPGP
Sequence of Fibroblast growth factor receptor (Homo sapiens) (P11362 whole entry, looked up): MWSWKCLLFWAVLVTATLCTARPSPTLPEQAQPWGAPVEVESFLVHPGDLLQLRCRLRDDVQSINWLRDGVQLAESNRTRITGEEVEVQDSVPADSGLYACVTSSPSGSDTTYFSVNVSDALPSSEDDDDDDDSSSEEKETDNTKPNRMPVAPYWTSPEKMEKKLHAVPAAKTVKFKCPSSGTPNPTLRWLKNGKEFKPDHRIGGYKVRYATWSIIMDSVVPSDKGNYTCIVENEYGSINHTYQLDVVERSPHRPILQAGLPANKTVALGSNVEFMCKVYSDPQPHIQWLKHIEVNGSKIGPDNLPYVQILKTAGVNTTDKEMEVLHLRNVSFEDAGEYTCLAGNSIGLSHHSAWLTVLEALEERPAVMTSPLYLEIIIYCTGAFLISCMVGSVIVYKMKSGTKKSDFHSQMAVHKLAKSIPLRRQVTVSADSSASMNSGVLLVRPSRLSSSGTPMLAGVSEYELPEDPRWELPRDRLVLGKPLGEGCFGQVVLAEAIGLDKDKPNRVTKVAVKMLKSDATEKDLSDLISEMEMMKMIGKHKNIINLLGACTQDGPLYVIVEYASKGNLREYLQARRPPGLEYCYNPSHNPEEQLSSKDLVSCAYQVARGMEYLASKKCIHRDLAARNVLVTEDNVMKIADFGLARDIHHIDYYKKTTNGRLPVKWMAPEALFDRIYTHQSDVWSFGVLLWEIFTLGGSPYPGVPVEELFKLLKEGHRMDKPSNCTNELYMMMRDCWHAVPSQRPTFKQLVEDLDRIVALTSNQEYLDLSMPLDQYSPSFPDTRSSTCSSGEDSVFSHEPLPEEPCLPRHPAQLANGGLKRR
Sequence of Fibroblast growth factor receptor (Homo sapiens) (P21802 whole entry, looked up): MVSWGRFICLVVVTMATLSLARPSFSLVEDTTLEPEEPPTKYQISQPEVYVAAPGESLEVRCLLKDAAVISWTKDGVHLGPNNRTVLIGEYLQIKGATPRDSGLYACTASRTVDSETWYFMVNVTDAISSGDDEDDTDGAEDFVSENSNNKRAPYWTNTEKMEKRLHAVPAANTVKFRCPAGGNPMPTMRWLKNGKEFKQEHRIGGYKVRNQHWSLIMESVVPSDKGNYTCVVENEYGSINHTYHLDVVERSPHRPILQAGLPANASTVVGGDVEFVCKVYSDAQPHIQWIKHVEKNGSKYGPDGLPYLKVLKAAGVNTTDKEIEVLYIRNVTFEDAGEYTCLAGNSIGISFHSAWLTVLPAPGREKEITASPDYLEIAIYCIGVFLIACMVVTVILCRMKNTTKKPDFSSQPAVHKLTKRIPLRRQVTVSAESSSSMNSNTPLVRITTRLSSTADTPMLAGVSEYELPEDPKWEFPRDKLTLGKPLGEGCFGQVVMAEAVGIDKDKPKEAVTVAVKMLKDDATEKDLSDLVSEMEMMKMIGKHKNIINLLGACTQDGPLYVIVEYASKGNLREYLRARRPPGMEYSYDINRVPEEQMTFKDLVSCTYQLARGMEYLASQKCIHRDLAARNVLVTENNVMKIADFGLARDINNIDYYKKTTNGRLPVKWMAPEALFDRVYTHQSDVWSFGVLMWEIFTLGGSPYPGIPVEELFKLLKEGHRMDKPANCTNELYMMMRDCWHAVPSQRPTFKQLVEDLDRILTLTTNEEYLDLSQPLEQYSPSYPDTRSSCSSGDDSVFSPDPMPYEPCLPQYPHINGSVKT
Sequence of Fibroblast growth factor receptor (Homo sapiens) (P22455 whole entry, looked up): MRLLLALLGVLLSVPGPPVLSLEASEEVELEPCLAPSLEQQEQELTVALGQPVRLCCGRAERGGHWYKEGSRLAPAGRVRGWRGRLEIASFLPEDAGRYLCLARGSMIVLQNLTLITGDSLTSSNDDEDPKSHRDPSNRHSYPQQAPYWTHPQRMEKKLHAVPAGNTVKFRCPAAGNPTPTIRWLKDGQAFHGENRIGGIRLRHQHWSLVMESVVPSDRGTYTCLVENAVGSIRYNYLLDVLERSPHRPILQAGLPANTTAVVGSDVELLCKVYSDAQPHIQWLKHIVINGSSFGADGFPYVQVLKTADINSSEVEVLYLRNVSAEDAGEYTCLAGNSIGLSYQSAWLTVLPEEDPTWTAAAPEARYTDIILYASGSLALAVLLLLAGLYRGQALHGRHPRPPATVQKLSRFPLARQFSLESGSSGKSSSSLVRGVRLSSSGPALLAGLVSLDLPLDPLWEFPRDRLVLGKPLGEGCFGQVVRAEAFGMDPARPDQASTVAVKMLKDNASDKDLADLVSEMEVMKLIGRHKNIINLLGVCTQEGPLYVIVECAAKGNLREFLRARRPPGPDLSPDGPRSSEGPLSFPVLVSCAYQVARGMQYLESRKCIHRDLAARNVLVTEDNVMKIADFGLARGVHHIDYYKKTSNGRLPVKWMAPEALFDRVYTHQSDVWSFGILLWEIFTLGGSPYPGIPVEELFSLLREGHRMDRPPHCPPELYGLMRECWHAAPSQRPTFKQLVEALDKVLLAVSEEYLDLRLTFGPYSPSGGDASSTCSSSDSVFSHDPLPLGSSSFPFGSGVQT
Sequence of Fibroblast growth factor receptor (Homo sapiens) (P22607 whole entry, looked up): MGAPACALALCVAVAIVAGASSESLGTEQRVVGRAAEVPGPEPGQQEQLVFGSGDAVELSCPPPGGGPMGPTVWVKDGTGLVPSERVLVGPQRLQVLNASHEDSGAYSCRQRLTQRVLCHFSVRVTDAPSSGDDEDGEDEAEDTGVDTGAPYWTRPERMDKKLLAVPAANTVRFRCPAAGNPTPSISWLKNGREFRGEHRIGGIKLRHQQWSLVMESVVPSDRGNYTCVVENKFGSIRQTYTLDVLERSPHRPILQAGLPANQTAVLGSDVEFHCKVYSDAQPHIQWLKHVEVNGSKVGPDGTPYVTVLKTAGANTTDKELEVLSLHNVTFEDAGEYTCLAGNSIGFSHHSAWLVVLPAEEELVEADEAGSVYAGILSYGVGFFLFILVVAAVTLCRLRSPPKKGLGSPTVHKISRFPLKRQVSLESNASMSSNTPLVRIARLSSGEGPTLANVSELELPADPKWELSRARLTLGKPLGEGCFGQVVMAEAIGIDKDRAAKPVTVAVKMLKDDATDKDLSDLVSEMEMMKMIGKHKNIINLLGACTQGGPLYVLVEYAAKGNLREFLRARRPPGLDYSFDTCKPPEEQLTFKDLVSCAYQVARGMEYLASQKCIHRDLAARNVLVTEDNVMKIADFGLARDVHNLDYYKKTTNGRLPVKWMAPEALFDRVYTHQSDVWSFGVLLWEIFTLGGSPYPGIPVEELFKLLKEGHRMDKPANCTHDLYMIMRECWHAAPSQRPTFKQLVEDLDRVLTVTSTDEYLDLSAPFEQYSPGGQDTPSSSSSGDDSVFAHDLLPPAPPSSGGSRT

MRT [1]: 7.8 min
inhibition [3]: Dose-Dependent Effect
inhibition [6]: Active
inhibition [10]: Active
inhibition [11]: Dose-Dependent Effect
inhibition [14]: 96.6%
inhibition [16]: Active
inhibition [17]: Active
inhibition [18]: Active
inhibition [19]: Active
AUC(0-inf) [26]: 205 ng·h/mL
IC50 [27]: 460 nM
inhibition [28]: 95%
IC50 [33]: 110 nM
SMILES: CC(C)S(=O)(=O)c1ccccc1Nc1nc(Nc2ccc(NC(=O)CCCCCCC(=O)NO)cc2)ncc1Cl
Ratio IC50 [2]: 3
Ratio IC50 [4]: 3
Activity [5]: Active
Ratio IC50 [7]: 3
Activity [8]: 21.32%
Ratio IC50 [9]: 3
Activity [12]: 28.89%
viability at 1 µM [13]: 87.9%
Activity [15]: 1.68%
Activity [20]: 32.42%
Activity [21]: 49.05%
Activity [22]: 1.96%
Activity [23]: 10.08%
viability at 1 µM [24]: 87.9%
Activity [25]: 3.7%
Activity [29]: 1.21%
Activity [30]: 32.53%
Activity [31]: 5.34%
Activity [32]: 3.56%
Activity [34]: 18.33%
